Like-named read-outs stand apart in the source and are kept apart here.
How the values were obtained:
SARS-CoV-2 PLpro [1] = target: T1, SARS-CoV-2 PLpro (Severe acute respiratory syndrome coronavirus 2, UniProt P0DTD1); assay: biochemical; assay type: biochemical; conditions: after 30-minute incubation; Z-RLRGG-AMC
SARS-CoV-2 PLpro [2] = target: T1, SARS-CoV-2 PLpro; assay: biochemical; conditions: for kinact/KI / kinact/KI (M^−1 s^−1): second-order rate constant
[3] = system: SARS-CoV-2 isolate USA-WA1/2020; assay: microbe, parasite or virus in culture; assay type: cell-based
Vero E6 cells [4] = system: Vero E6 cells
in vitro [5] = conditions: African green monkey
in vitro [6] = conditions: human, microsomes
[7] = system: viral replication in Vero E6 cells; conditions: K. Ratia et al.; cited from earlier work
in vitro [8] = conditions: human, s9
[9] = target: seven human DUBs, UCHL1, USP2, USP4, USP7, USP8, USP15, and USP30; assay: Human deubiquitinase selectivity screening; assay type: biochemical; conditions: for IC50: UCHL1, USP2, USP4, USP7, USP8, USP15, USP30, read-out: IC50 (μM) values versus seven human deubiquitinases; for inhibition of human DUBs: concentrations up to 30 μM
SARS-CoV-2 PLpro [10] = target: T1, SARS-CoV-2 PLpro; assay: biochemical; conditions: ISG15-CHOP2 substrate
SARS-CoV-2 PLpro [11] = target: T1, SARS-CoV-2 PLpro; assay: biochemical; conditions: Ub-rhodamine substrate
SARS-CoV PLpro = SARS-CoV PLpro (Severe acute respiratory syndrome coronavirus (SARS-CoV), UniProt P0C6X7); conditions: cited from earlier work
[12] = mouse, in vivo
SARS-CoV-2 USA-WA1/2020 [13] = assay: CPE assay in Vero E6 cells, neutral red staining, USA-WA1/2020; assay type: cell-based; conditions: Severe acute respiratory syndrome coronavirus 2, Vero C1008
in vitro [14] = conditions: African green monkey; remark: listed apart in the source
[15] = system: SARS-CoV-2 Delta (B.1.617.2); assay: CPE assay in Vero E6 cells, neutral red staining, Delta; assay type: cell-based; conditions: Severe acute respiratory syndrome coronavirus 2, Vero C1008
in vitro [16] = conditions: human
[17] = system: SARS-CoV-2 Omicron (B.1.1.529); assay: microbe, parasite or virus in culture; assay type: cell-based; conditions: Severe acute respiratory syndrome coronavirus 2, Caco-2
[18] = system: SARS-CoV-2 Delta (B.1.617.2); assay: microbe, parasite or virus in culture; assay type: cell-based; conditions: Severe acute respiratory syndrome coronavirus 2, Caco-2
Caco-2 cells = conditions: Delta row
Vero E6 cells [19] = conditions: 2 μM CP-100356, Delta row
SARS-CoV-2 USA-WA1/2020 [20] = assay: microbe, parasite or virus in culture; assay type: cell-based; conditions: Severe acute respiratory syndrome coronavirus 2, Caco-2
[21] = system: SARS-CoV-2 Omicron (B.1.1.529); assay: CPE assay in Vero E6 cells, neutral red staining, Omicron; assay type: cell-based; conditions: Severe acute respiratory syndrome coronavirus 2, Vero C1008
deISGylase USP18 = deISGylase USP18 (Homo sapiens (Human), UniProt Q9UMW8); conditions: K. Ratia et al.; cited from earlier work
HAUSP = HAUSP (Homo sapiens (Human), UniProt Q93009); conditions: K. Ratia et al.; cited from earlier work
cell viability = conditions: concentrations up to 50 μM in cell viability assays; cited from earlier work
[22] = target: ubiquitin C-terminal hydrolase UCH-L1 (Homo sapiens (Human), UniProt P09936); conditions: K. Ratia et al.; cited from earlier work
[23] = target: ubiquitin C-terminal hydrolase UCH-L3 (Homo sapiens (Human), UniProt P15374); conditions: K. Ratia et al.; cited from earlier work
[24] = time-dependent inhibition yes/no
[25] = cytopathic effect in SARS-CoV-2-infected Vero E6 cells, 48 h, MOI 0.1

For `C[C@@H](NC(=O)c1ccccc1CCC(=O)NN)c1cccc2ccccc12` [Compound 5, (R)-2-(3-hydrazineyl-3-oxopropyl)-N-(1-(naphthalen-1-yl)ethyl)benzamide], the IC50 (SARS-CoV-2 PLpro [1]) was 24 µM and the Time dep. (SARS-CoV-2 PLpro [2]; [24]) was “no”.

For `C[C@@H](NC(=O)c1ccccc1CCC(=O)NNC(=O)C(C#N)=CC1CC1)c1cccc2ccccc12` [Compound 13, (R)-2-(3-(2-(2-cyano-3-cyclopropylacryloyl)hydrazineyl)-3-oxopropyl)-N-(1-(naphthalen-1-yl)ethyl)benzamide], the “EC50 (μM)” value [3, 25] was “no CPE”, the IC50 (SARS-CoV-2 PLpro [1]) was > 200 µM and the Time dep. (SARS-CoV-2 PLpro [2]; [24]) was “not and no”. The “Cytotox. (<30 μM)” value (Vero E6 cells [4]) was “yes” and the CC50 at 48 h (in vitro [5]) was 1 to 5 µM.

`CCC(CC)COC(=O)[C@H](C)N[P@](=O)(OC[C@H]1O[C@@](C#N)(c2ccc3c(N)ncnn23)[C@H](O)[C@@H]1O)Oc1ccccc1` [remdesivir, reference compound] gave an EC50 ([3]; Severe acute respiratory syndrome coronavirus 2, Vero C1008, 48 h) of 0.74 µM.

For `Cc1ccccc1C(=O)N[C@H](C)c1cccc2ccccc12` [Compound 14, (R)-2-methyl-N-(1-(naphthalen-1-yl)ethyl)benzamide], the “EC50 (μM)” value [3, 25] was “no CPE”, the IC50 (SARS-CoV-2 PLpro [1]) was 100 µM and the half-life at 1 μM (in vitro [6]) was 41 min. The “Cytotox. (<30 μM)” value (Vero E6 cells [4]) was “no”, the EC50 [7] was 10 µM and the half-life at 1 μM (in vitro [8]) was > 60 min.

With `COC(=O)/C=C/C(=O)NNC(=O)CCc1ccc(NC(C)=O)cc1C(=O)N[C@H](C)c1cccc2ccccc12` [Compound 8, methyl-(R,E)-4-(2-(3-(4-acetamido-2-((1-(naphthalen-1-yl)ethyl)carbamoyl)phenyl)propanoyl)hydrazineyl)-4-oxobut-2-enoate] the kinact/KI (SARS-CoV-2 PLpro [2]) was 14000 M⁻¹ s⁻¹, the “kinact/KI (M^−1 s^−1)” value (SARS-CoV-2 PLpro [2]) was 14,000 M^−1 s^−1 and the “Cytotox. (<30 μM)” value (Vero E6 cells [4]) was “no”.

For `C[C@@H](NC(=O)c1ccccc1CCC(=O)NNC(=O)CCl)c1cccc2ccccc12` [Compound 9, (R)-2-(3-(2-(2-chloroacetyl)hydrazineyl)-3-oxopropyl)-N-(1-(naphthalen-1-yl)ethyl)benzamide], the EC50 ([3]; Severe acute respiratory syndrome coronavirus 2, Vero C1008, cytopathic effect in SARS-CoV-2-infected Vero E6 cells, 48 h, MOI 0.1) was 34 µM, the IC50 [9] was > 30 µM and the “inhibition of human DUBs” value [9] was “no inhibition was observed”. It also gave an IC50 (SARS-CoV-2 PLpro [10]) of 20.2 µM, an IC50 (SARS-CoV-2 PLpro [1]) of 5.4 µM and a kinact/KI (SARS-CoV-2 PLpro [2]) of 100 M⁻¹ s⁻¹. The “kinact/KI (M^−1 s^−1)” value (SARS-CoV-2 PLpro [2]) was 103 M⁻¹ s⁻¹, the Time dep. (SARS-CoV-2 PLpro [2]; [24]) was “yes” and the half-life at 1 μM (in vitro [6]) was 7 min. The “Cytotox. (<30 μM)” value (Vero E6 cells [4]) was “no”, the IC50 (SARS-CoV-2 PLpro [11]) was 1.96 µM and the half-life at 1 μM (in vitro [8]) was 3 min. The CC50 at 48 h (in vitro [5]) was > 30 µM.

In the case of `CC(=O)Nc1ccc(C)c(C(=O)N[C@H](C)c2cccc3ccccc23)c1` [Compound 15, (R)-5-acetamido-2-methyl-N-(1-(naphthalen-1-yl)ethyl)benzamide], the “EC50 (μM)” value [3, 25] is given as “no CPE”, the IC50 (SARS-CoV-2 PLpro [1]) is given as 6.2 µM and the IC50 (SARS-CoV PLpro) is given as 2.6 µM. The “Cytotox. (<30 μM)” value (Vero E6 cells [4]) was “no” and the EC50 [7] was 13.1 µM.

In the case of `COC(=O)/C=C/C(=O)NNC(=O)CCc1ccccc1C(=O)N[C@H](C)c1cccc2ccccc12` [Compound 7, methyl(R,E)-4-(2-(3-(2-((1-(naphthalen-1 yl)ethyl)carbamoyl)-phenyl)propanoyl)hydrazineyl)-4-oxobut-2-enoate], the “exposure following IV dosing” value ([12]; iv, 3 mg/kg) is reported as “Little exposure was observed”, the “exposure following PO dosing” value ([12]; po, 10 mg/kg) is reported as “no exposure recorded” and the EC50 (SARS-CoV-2 USA-WA1/2020 [13]) is reported as 0.068 µM. For the same molecule, the CC50 (in vitro [14]) was > 10 µM, the EC50 [15] was 0.29 µM and the CC50 (in vitro [16]) was > 10 µM. For the same molecule, the EC90 [17] was 2.4 µM, the IC50 [9] was > 30 µM and the “inhibition of human DUBs” value [9] was “no inhibition was observed”. For the same molecule, the EC90 [18] was > 10 µM, the Time dep. (SARS-CoV-2 PLpro [2]; [24]) was “yes” and the half-life at 1 μM (in vitro [6]) was 50 min. The “Cytotox. (<30 μM)” value (Vero E6 cells [4]) was “no”, the CC50 (Caco-2 cells) was > 10 µM and the half-life at 1 μM (in vitro [8]) was 60 min. For the same molecule, the CC50 (Vero E6 cells [19]) was > 10 µM, the EC90 (SARS-CoV-2 USA-WA1/2020 [20]) was 0.26 µM and the EC50 [21] was 0.68 µM. For the same molecule, the CC50 at 48 h (in vitro [5]) was > 30 µM.

In the case of `C#CC(=O)NNC(=O)CCc1ccccc1C(=O)N[C@H](C)c1cccc2ccccc12` [Compound 12, (R)—N-(1-(naphthalen-1-yl)ethyl)-2-(3-oxo-3-(2-propioloylhydrazineyl)propyl)benzamide], the “EC50 (μM)” value [3, 25] is reported as “no CPE”, the IC50 (SARS-CoV-2 PLpro [1]) is reported as 0.098 µM and the kinact/KI (SARS-CoV-2 PLpro [2]) is reported as 4800 M⁻¹ s⁻¹. The Time dep. (SARS-CoV-2 PLpro [2]; [24]) was “Time-dependent inhibition was observed and yes”, the “Cytotox. (<30 μM)” value (Vero E6 cells [4]) was “yes” and the CC50 at 48 h (in vitro [5]) was 1 to 5 µM.

In the case of `C[C@@H](NC(=O)c1ccccc1CCC(=O)NNC(=O)CC#N)c1cccc2ccccc12` [Compound 11, (R)-2-(3-(2-(2-cyanoacetyl)hydrazineyl)-3-oxopropyl)-N-(1-(naphthalen-1-yl)ethyl)benzamide], the “EC50 (μM)” value [3, 25] is reported as “no CPE”, the IC50 (SARS-CoV-2 PLpro [1]) is reported as 8 µM and the Time dep. (SARS-CoV-2 PLpro [2]; [24]) is reported as “not and no”. The “Cytotox. (<30 μM)” value (Vero E6 cells [4]) was “no”.

For GRL0617, the IC50 (deISGylase USP18) is listed as > 100 µM, the IC50 (HAUSP) is listed as > 100 µM and the Time dep. (SARS-CoV-2 PLpro [2]) is listed as “no”. For the same molecule, the cytotoxicity (cell viability) was “does not display cytotoxicity”, the IC50 [22] was > 100 µM and the IC50 [23] was > 100 µM.

With `CC(=O)Nc1ccc(CCC(=O)NNC(=O)CCl)c(C(=O)N[C@H](C)c2cccc3ccccc23)c1` [Compound 10, (R)-5-acetamido-2-(3-(2-(2-chloroacetyl)hydrazineyl)-3-oxopropyl)-N-(1-(naphthalen-1-yl)ethyl)benzamide] the cytoprotective effects ([3]; SARS-CoV-2-infected Vero E6 cells) was “insignificant cytoprotective effects”, the “EC50 (μM)” value [3, 25] was “no CPE” and the IC50 (SARS-CoV-2 PLpro [1]) was 4.4 µM. For the same molecule, the kinact/KI (SARS-CoV-2 PLpro [2]) was 120 M⁻¹ s⁻¹, the “kinact/KI (M^−1 s^−1)” value (SARS-CoV-2 PLpro [2]) was 120 M⁻¹ s⁻¹ and the Time dep. (SARS-CoV-2 PLpro [2]; [24]) was “yes”. The “Cytotox. (<30 μM)” value (Vero E6 cells [4]) was “no”.

With `COC(=O)CCc1ccccc1C(=O)N[C@H](C)c1cccc2ccccc12` [Compound 3, methyl (R)-3-(2-((1-(naphthalen-1-yl)ethyl)carbamoyl)phenyl)-propanoate] the Time dep. (SARS-CoV-2 PLpro [2]; [24]) was “no”.
